Target: T1, NoCAR (Nocardia otitidiscaviarum, UniProt A0A378YSF8)
T1 construct: gene lgrD_6; pETDuet, T7 promoter, co-expressed with E. coli pyrophosphatase (EcPPase, no chain) in E. coli K12 MG1655 RARE; whole cells; CAR class approx. 130 kDa
T1 sequence (A0A378YSF8 1-1156): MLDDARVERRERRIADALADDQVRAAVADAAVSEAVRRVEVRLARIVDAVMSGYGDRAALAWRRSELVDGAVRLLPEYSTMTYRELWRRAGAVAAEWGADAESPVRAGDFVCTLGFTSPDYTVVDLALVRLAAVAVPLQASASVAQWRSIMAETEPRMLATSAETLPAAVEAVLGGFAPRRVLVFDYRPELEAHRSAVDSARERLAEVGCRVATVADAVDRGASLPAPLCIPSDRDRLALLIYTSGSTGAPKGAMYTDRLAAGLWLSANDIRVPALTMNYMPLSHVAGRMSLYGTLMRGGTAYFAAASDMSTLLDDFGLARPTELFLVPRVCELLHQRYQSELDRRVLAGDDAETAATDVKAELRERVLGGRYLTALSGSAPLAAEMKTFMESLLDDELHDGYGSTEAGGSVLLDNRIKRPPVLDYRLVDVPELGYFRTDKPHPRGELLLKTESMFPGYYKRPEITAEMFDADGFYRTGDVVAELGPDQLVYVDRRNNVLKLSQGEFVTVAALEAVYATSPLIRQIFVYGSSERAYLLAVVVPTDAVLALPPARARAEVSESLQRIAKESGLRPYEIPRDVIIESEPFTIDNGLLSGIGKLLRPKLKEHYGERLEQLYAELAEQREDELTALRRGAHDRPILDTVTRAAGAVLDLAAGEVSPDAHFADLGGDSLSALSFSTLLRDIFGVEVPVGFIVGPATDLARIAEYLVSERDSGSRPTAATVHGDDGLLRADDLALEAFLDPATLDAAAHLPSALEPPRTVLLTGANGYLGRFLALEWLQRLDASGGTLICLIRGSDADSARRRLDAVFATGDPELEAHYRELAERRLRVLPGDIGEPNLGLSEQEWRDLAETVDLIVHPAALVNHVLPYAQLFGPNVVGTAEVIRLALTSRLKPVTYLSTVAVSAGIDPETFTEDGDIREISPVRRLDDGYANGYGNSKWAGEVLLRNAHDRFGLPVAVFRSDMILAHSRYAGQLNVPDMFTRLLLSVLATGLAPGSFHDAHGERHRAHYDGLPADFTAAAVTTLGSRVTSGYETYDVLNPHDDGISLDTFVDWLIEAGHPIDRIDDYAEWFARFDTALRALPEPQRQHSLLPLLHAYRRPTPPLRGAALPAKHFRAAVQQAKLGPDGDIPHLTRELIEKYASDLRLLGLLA
Assay: whole-cell biotransformation, ABAO assay of 3-hydroxybenzaldehyde at […] nm
Format: cell-based
Conditions: 2.5 mM substrate in PBS / minimal medium with glucose, growing E. coli cells, 35 °C; no added cofactor

SMILES: O=C(O)c1cccc(O)c1 [3-hydroxybenzoic acid]
- whole-cell biotransformation, ABAO assay of 3-hydroxybenzaldehyde at 360 nm: The biotransformation consists of the conversion of 3-hydroxybenzoic acid to 3-hydroxybenzaldehyde
